ChEMBL document CHEMBL1124051 (J Med Chem, 1988)

Assays:
[1] = Partition coefficient (logP); format: physicochemical; details: octanol/water
[2] = biological target: Mu-type opioid receptor (Rattus norvegicus) (UniProt P33535); details: Brain; Membrane
[3] = biological target: Mu-type opioid receptor (Rattus norvegicus) (UniProt P33535); details: Brain; Membrane; remark: listed apart in the source

Mu-type opioid receptor (Rattus norvegicus), sequence (P33535 whole entry): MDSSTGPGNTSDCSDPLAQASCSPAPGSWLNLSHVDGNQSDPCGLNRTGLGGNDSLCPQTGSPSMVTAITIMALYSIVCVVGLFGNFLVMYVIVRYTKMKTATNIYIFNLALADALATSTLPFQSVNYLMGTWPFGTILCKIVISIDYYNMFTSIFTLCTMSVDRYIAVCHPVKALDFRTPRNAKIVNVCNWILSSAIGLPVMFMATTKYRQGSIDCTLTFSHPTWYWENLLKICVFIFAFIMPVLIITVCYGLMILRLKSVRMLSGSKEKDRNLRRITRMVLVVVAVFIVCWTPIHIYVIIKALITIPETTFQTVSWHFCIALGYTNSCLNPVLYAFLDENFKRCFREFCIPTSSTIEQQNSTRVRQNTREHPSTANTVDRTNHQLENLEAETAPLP

Row | SMILES | logP ([1]; read-out: logP) | other results
1 | CC1C2Cc3ccc(O)cc3C1(C)CCN2Cc1ccoc1 (stereo in doubt; form 2) |  | logP [1]: 2
2 | CN1CCC23c4c5cccc4OC2CCCC3C1C5 (configuration not stated) | 1.35 | 
3 | CN1CCC23c4c5ccc(O)c4OC2C(O)CCC3C1C5 (configuration not stated) | -0.51 | 
4 | C=CCN1CCC23c4c5ccc(O)c4OC2C(O)C=CC3C1C5 (configuration not stated) | 1.22 | 
5 | CN1CC[C@]23CCCC[C@H]2[C@H]1Cc1ccc(O)cc13 [LEVORPHANOL] | 1.03 | KT [2]: 20.8; Kp [3]: 15.6
6 | CC1C2Cc3ccc(O)cc3C1(C)CCN2Cc1ccoc1 (stereo in doubt; form 1) | 2.25 | 
7 | CN1CCC23c4c5cccc4OC2C(=O)CCC3C1C5 (configuration not stated) | 0.4 | 
8 | CN1CCC23c4c5cccc4OC2C(O)C=CC3C1C5 (configuration not stated) | 0.3 | 
9 | C[C@H]1[C@@H]2Cc3ccc(O)cc3[C@]1(C)CCN2C [METAZOCINE] | 0.47 | 
10 | CN1CCC23c4c5ccc(O)c4OC2C(=O)CCC3(O)C1C5 (configuration not stated) | -0.42 | 
11 | C[C@H]1[C@H]2Cc3ccc(O)cc3[C@]1(C)CCN2CC1CC1 [CYCLAZOCINE] |  | logP [1]: 0.97
12 | CC1C2Cc3ccc(O)cc3C1(C)CCN2Cc1ccco1 (stereo in doubt; form 1) |  | logP [1]: 2.49
13 | COc1ccc2c3c1O[C@H]1[C@@H](O)C=C[C@H]4[C@@H](C2)N(C)CC[C@@]341 [CODEINE] | 0.25 | KT [2]: 13.3; Kp [3]: 11.4
14 | CN1CC[C@]23c4c5ccc(O)c4O[C@H]2[C@@H](O)C=C[C@H]3[C@H]1C5 |  | KT [2]: 18.8; Kp [3]: 12.6
15 | C=CCN1CCC2(C)c3cc(O)ccc3CC1C2C (stereo in doubt; form 1) |  | logP [1]: 1.58
16 | C=CCN1CCC23CCCCC2C1Cc1ccc(O)cc13 (configuration not stated) | 2.14 | KT [2]: 21.6; Kp [3]: 20.8
17 | CC1C2Cc3ccc(O)cc3C1(C)CCN2Cc1ccco1 (stereo in doubt; form 2) | 2.68 | 
18 | C=CCN1CCC23c4c5cccc4OC2C(O)CCC3C1C5 (configuration not stated) | 0.87 | 
19 | CN1CCC23c4c5cccc4OC2C(=O)CCC3(O)C1C5 (configuration not stated) | -0.23 | 
20 | C=CCN1CCC2(C)c3cc(O)ccc3CC1C2C (stereo in doubt; form 2) | 1.73 | 
